Test results as given in patent publication US9630962B2, “4-amino-6-(2,6-dichlorophenyl)-2-(phenylamino)-pyrido[2,3-d]pyrimidin-7(8H)-one derivatives, synthesis and uses thereof” (INSTITUT QUÍMIC DE SARRIÁ, CETS FUNDACIÓ PRIVADA, priority 2013, dated 2017).
Where two headings read alike, the source gives them in different places.

How the values were obtained:
SYK aa1-635 = molecular target: T1, SYK aa1-635 (Homo sapiens, UniProt P43405); assay: Radiometric protein kinase assay (33PanQinase Activity Assay), residual activity; format: biochemical; conditions: 10 μM (1×10^−05 M) test compound, singlicate
T1 construct: BTK, LYN, SYK aa1-635; purchased ProQinase; host or cells: Sf9 insect cells or E. coli (not specified per kinase)
Experimental: (§1) The kinase inhibition profile of compounds of formula (I) was evaluated at Proqinase (http://www.proqinase.conn) by measuring residual activity values at a concentration of 10 μM of the test compound in singlicate in front of the following kinases: BTK, LYN, SYK aa1-635 using the following protocol:
(§2) The compounds were dissolved to 1×10^−03 M stock solutions in 100% DMSO. Subsequently, 100 μl of each stock solution were transferred into wells A3-F12 of a microtiter plate (“master plate”). Wells A1-F2 were filled with 100 μl 100% DMSO as controls. 5×10 μl of the master plate were aliquoted into 5 copy plates, which were stored at −20° Celsius until use. For the testing of each group of up to 8 kinases, one copy plate was used.
(§3) In the process, 90 μl H2O were added to each well of a copy plate. To minimize precipitation, the H2O was added to each well only a few minutes before the transfer of the compound solutions into the assay plates. The plate was shaken thoroughly, resulting in a “compound dilution plate” with a compound concentration of 1×10^−04 M/10% DMSO. This plate was used for the transfer of 5 μl compound solution into the assay plates. The final volume of the assay was 50 μl. All compounds were tested at 1×10^−05 M in singlicate. The final DMSO concentration in the reaction cocktails was 1% in all cases. The compound dilution plates were disposed at the end of each working day.
(§4) A radiometric protein kinase assay (^33PanQinase® Activity Assay) was used for measuring the kinase activity of the corresponding protein kinases. All kinase assays were performed in 96-well FlashPlates™ from Perkin Elmer (Boston, Mass., USA) in a 50 μl reaction volume. The reaction cocktail was pipetted in 4 steps in the following order: • 10 μl of non-radioactive ATP solution (in H2O) • 25 μl of assay buffer/[γ-33P]-ATP mixture • 5 μl of test sample in 10% DMSO • 10 μl of enzyme/substrate mixture
(§5) The protein kinase reaction cocktails were incubated at 30° C. for 60 minutes. The reaction was stopped with 50 μl of 2% (v/v) H3PO4, plates were aspirated and washed two times with 200 μl 0.9% (w/v) NaCl. All assays were performed with a BeckmanCoulter Biomek 2000/SL robotic system. Incorporation of ^33Pi (counting of “cpm”) was determined with a microplate scintillation counter (Microbeta, Wallac).
(§6) All protein kinases provided by ProQinase were expressed in Sf9 insect cells or in E. coli as recombinant GST-fusion proteins or His-tagged proteins. All kinases were produced from human cDNAs and purified by either GSH-affinity chromatography or immobilized metal. Affinity tags were removed from a number of kinases during purification. The purity of the protein kinases was examined by SDS-PAGE/Coomassie staining, the identity was checked by mass spectroscopy.
(§7) For each kinase, the median value of the cpm of six wells of column 1 of each assay plate was defined as “low control” (n=6). This value reflects unspecific binding of radioactivity to the plate in the absence of a protein kinase but in the presence of the substrate. Additionally, for each kinase the median value of the cpm of six wells of column 2 of each assay plate was taken as the “high control”, i.e. full activity in the absence of any inhibitor (n=6). The difference between high and low control of each enzyme was taken as 100% activity.
(§8) As part of the data evaluation the low control of each kinase was subtracted from the high control value as well as from their corresponding “compound values”. The residual activity (in %) for each compound well was calculated by using the following formula: Res. Activity (%)=100×[(signal of compound −low control)/(high control −low control)] Results
(§9) The singlicate residual activity values of the tested compounds at one concentration (1×10^−05 M) in singlicate in the required protein kinase assays are given.

LYN = molecular target: T2, LYN (Homo sapiens, UniProt P07948); assay: as above; format: biochemical; conditions: 10 μM (1×10^−05 M) test compound, singlicate
T2 construct: purchased ProQinase; host or cells: Sf9 insect cells or E. coli (not specified per kinase)
Experimental: as §1, §2, §3, §4, §5, §6, §7, §8, §9

BTK = molecular target: T3, BTK (Homo sapiens, UniProt Q06187); assay: as above; format: biochemical; conditions: 10 μM (1×10^−05 M) test compound, singlicate
T3 construct: purchased ProQinase; host or cells: Sf9 insect cells or E. coli (not specified per kinase)
Experimental: as §1, §2, §3, §4, §5, §6, §7, §8, §9

[1] = system: relapsed/refractory non-Hodgkin's lymphoma and CLL; conditions: cited from earlier work

T2 sequence (P07948 whole entry): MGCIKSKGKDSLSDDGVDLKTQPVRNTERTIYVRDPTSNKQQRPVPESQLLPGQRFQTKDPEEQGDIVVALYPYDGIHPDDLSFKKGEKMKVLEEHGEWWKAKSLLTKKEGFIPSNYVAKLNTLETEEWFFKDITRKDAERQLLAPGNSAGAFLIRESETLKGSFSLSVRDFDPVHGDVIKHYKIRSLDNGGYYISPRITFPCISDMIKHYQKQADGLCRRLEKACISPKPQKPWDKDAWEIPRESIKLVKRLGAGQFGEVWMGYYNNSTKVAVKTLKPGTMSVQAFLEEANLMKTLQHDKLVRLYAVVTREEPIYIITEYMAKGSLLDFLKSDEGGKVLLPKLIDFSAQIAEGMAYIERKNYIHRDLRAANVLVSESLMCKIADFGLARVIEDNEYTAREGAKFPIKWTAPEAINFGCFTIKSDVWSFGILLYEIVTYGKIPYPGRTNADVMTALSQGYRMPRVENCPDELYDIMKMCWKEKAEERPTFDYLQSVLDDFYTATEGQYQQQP
T3 sequence (Q06187 whole entry): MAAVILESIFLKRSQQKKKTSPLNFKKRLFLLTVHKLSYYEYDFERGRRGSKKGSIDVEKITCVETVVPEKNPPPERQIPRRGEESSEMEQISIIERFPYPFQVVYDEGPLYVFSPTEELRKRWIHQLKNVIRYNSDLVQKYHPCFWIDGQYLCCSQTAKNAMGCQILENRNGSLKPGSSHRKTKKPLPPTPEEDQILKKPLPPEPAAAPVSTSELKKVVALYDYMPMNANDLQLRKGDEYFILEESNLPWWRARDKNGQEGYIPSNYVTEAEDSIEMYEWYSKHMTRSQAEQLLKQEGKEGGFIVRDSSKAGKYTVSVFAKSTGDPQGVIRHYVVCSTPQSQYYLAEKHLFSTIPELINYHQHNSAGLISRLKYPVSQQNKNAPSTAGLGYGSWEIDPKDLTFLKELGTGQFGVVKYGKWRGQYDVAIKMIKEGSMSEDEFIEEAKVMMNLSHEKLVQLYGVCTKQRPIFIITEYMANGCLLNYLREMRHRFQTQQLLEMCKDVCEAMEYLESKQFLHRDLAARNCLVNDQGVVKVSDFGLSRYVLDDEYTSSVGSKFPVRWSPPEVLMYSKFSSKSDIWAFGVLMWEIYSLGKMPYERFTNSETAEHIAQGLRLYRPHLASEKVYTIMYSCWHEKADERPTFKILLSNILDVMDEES

Row | remaining activity at 10 µM (SYK aa1-635) [%] | remaining activity at 10 µM (LYN) [%] | remaining activity at 10 µM (BTK) [%] | SMILES | response rate ([1]; DLBCL patients) [%] | response rate ([1]; FL patients) [%] | response rate ([1]; MCL patients) [%] | partial response (PR) ([1]; patients with CLL (6 of 11)) [%] | dose-limiting toxicity ([1]; phase 1/2 study)
1 | 31 | 0 | 10 | Cn1c(=O)c(-c2c(Cl)cccc2Cl)cc2c(N)nc(Nc3ccc(NCCN4CCOCC4)cc3)nc21 [Example 6, 4-amino-6-(2,6-dichlorophenyl)-8-methyl-2-(4-(2-morpholinoethylamino)-phenylamino)-pyrido[2,3-d]pyrimidin-7(8H)-one] |  |  |  |  | 
2 |  |  |  | COc1cc(Nc2ncc(F)c(Nc3ccc4c(n3)N(COP(=O)(O)O)C(=O)C(C)(C)O4)n2)cc(OC)c1OC [fostamatinib] | 22 | 10 | 11 | 55 | diarrhea, neutropenia, and thrombocytopenia
